Consider 1 molecule from US20250235486A1, “Method of Producing Insulin-Producing Cells” (Monash University, priority 2022, published 2025).

Holding throughout (format): cell-based
Assay [1] concerns Human pancreatic ductal epithelial cells. The assay can be described thus: qRT-PCR after 2- and 7-day EZH2 inhibitor stimulation of human pancreatic ductal epithelial cells. As to conditions: GSK-126 10 μM.
Experimental: Human pancreatic ductal epithelial cells were purchased from AddexBio and cultured according to the recommended protocols. Cells were cultured in complete Keratinocyte Serum-Free Media (supplemented with human recombinant EGF, Bovine Pituitary Extract and Antibiotic-Antimycotic [Gibco]. All cell cultures were grown and maintained in a 37° C., 5% C02 environment using a tissue culture incubator. Once cells reached 70-80% confluency, passaging was performed using 0.05% Trypsin EDTA (Sigma). […] Vehicle control was DMSO. Cells were treated over 2 main timepoints, with harvests occurring following 2, and 7 days. For the 2-day time point, cells were seeded and left to adhere in plates for 24 hours. Treatment was initiated with the first dose made up in complete K-SFM. The second dose was delivered 24 hours later following a media change. For the longer period of 7 days, cells were initially seeded in 10 cm plates, with doses delivered on alternate days following the initial period of 24 hours. […] Ct values of experimental genes were normalized to housekeeping gene [MUT]. Fold change of mRNA abundance was calculated by normalizing drug treated values to vehicular controls. […] RNA was isolated using the RNeasy Kit according to the manufacturer's directions. Following measurement of RNA concentration using a QIAxpert System, 1 μg of RNA was used for cDNA synthesis by a high-capacity cDNA Reverse Transcription Kit (Applied Biosystems). The resulting cDNA reaction mix was diluted 1:6 to make up the final template cDNA used subsequently. […] Ct values of experimental genes were normalized to housekeeping gene [MUT]. Fold change of mRNA abundance was calculated by normalizing drug treated values to vehicular controls.
Assay [2] has as its system H3K27me3 content at promoters in human exocrine cells. Nature of the assay: Chromatin immunoprecipitation (anti-H3K27me3) qPCR in exocrine cells of a non-diabetic donor. Conditions: GSK126 vs DMSO. As for the experimental part: Chromatin immunoprecipitation assays in human exocrine cells were performed previously described (Rafehi H, et al. Vascular histone deacetylation by pharmacological HDAC inhibition. Genome Res 24, 1271-1284 (2014); Pirola L, et al. Genome-wide analysis distinguishes hyperglycemia regulated epigenetic signatures of primary vascular cells. Genome Res 21, 1601-1615 (2011)). Cells were fixed for 10 minutes with 1% formaldehyde and quenched for 10 mins with glycine (0.125 M) solution. Fixed cells were resuspended in sodium dodecyl (lauryl) sulfate (SDS) lysis buffer (1% SDS, 10 mM EDTA, 50 mM Tris-HCl pH 8.1) including a protease inhibitor cocktail (Roche Diagnostics GmBH, Mannheim, Germany) and homogenized followed by incubation on ice for 5 minutes. […] H3K27me3 content at the promoters of the INS, INS-IGF2, NGN3 and PDX1 genes were assessed by qPCR using primers designed from the integrative ENCODE resource (Zhang J, et al. An integrative ENCODE resource for cancer genomics. Nat Commun 11, 3696 (2020)).
Proteins were cross-linked to DNA and soluble chromatin fractionated by sonication. […] DNA was assessed by qPCR using amplimers specifically designed to detect human Ins chromatin domain genes (FIG. 5a). […]
(In qPCR the cycle at which signal appears reflects the starting amount.)

In assay [3] the test system is human exocrine (acinar and ductal) cells. Nature of the assay: qRT-PCR gene expression in human exocrine (acinar and ductal) cells from a non-diabetic donor. As to conditions: 48 hours: GSK126 10 μM, CPI-1205 5 μM, ursolic acid 5 μM, GSK343 5 μM, EPZ-6438 5 μM. Here is the method:
Exocrine cells from a non-diabetic human and a marmoset were cultured and assayed in Miami/CMRL medium. The human exocrine cells were sourced from the Islet Transplant Unit of St Vincent's Institute for Medical Research. The marmoset exocrine cells were sourced from the Australian Regenerative Medicine Institute (ARMI), Monash University. Miami media is based on CMRL 1066 media (Connaught Medical Research Lab) supplemented with: Insulin, Transferrin & Selenium (ITS), human serum, Vitamin E, sodium pyruvate, zinc and HEPES. Pharmacological inhibition of EZH2 and gene expression analysis were performed as described in Example 1.

Setting [4] is: 2 days, EPZ6438 1 μM, Triptolide 20 nM.
Setting [5] is: 7 days, EPZ6438 1 μM, Triptolide 20 nM.

Structures are written as SMILES.

On to `CC[C@H](C)n1cc(C)c2c(C(=O)NCc3c(C)cc(C)[nH]c3=O)cc(-c3ccc(N4CCNCC4)nc3)cc21` [GSK126, N-[(1,2-Dihydro-4,6-dimethyl-2-oxo-3-pyridinyl)methyl]-3-methyl-1-[(1S)-1-methylpropyl]-6-[6-(1-piperazinyl)-3-pyridinyl]-1H-indole-4-carboxamide], for which the “MAFA mRNA levels” value in assay [1] (2-day point, Triptolide 20 nM) was “increased in a statistically significant manner”. For the same molecule, in assay [1] (2 days), the “Alpha-amylase (AMY2A) transcripts” value is given as “increased significantly”. In assay [1] (setting [4]), the CK19 expression entry is “statistically significant decreases”; the “NGN3 mRNA levels” value is listed as “significantly elevated”; the “insulin transcripts, mature mRNA (INS)” value is “elevations”; the “insulin transcripts, unprocessed heterogenous nuclear form (INS hnRNA)” value is recorded as “elevations”. Further, in assay [1] (setting [5]), the “NGN3 mRNA levels” value is recorded as “Further increases”; the “insulin transcripts, mature mRNA (INS)” value is on record as “even further increases”; the “insulin transcripts, unprocessed heterogenous nuclear form (INS hnRNA)” value is on record as “even further increases”. In addition, the “H3K27me3 content at the Ins and Igf2AS promoter (R1-R3) regions” value in assay [2] (non-diabetic donor (2)) is “Significant reduction”. Moreover, in assay [2] (non-diabetic exocrine cells), the “H3K27me3 content on the Ngn3 promoter R1” value is “marginally affected”. Besides, the “mRNA expression of Insulin, Pdx1 and Ngn3” value in assay [3] is “stimulated expression of one, two or all of Insulin, Pdx1 and Ngn3”.
